According to publication PMC5518105, “Identification and characterization of the antiplasmodial activity of Hsp90 inhibitors” (Malaria Journal, 2017):
“Also recorded” adds a separate entry of the source. Where two headings read alike, the source gives them in different places.

Assays:
P. falciparum Grp94 = P. falciparum Grp94 (Plasmodium falciparum, UniProt Q8I0V4); test: biochemical; type: binding
Procedure: (§1) Full-length human recombinant HSP90α was purchased (Cayman Chemicals, MI), while the malaria recombinant parasite proteins were generated according to the following protocol. […] Growth at 37 °C continued until the OD600 reached ~1.0, whereupon the temperature was lowered to 18 °C and protein expression was induced by the addition of 1 mM isopropyl β-D-thiogalactopyranoside (IPTG). Overnight post-induction cells were collected by centrifugation and resuspended in binding buffer [50 mM Hepes pH 7.5, 500 mM NaCl, 1 mM benzamidine, and 1 mM phenylmethanesulfonyl fluoride (PMSF)]. The cells were lysed by adding chemical lysis buffer (2% CHAPS, 0.1 mg/mL lysozyme and 0.5 U/mL benzonase), the lysate was clarified by centrifugation. The supernatant was loaded on to a nickel-nitrilotriacetic acid column pre-equilibrated with binding buffer (50 mM Hepes pH 7.5, 500 mM NaCl). Following a wash step with binding buffer containing 5 mM imidazole, the bound protein was eluted with elution buffer (50 mM Hepes pH 7.5, 500 mM NaCl, 250 mM imidazole). The eluate was then loaded on to a 16/60 Superdex 200 size exclusion column pre-equilibrated with 50 mM Hepes pH 7.5 and 500 mM NaCl. Target protein-containing fractions were pooled and concentrated using centrifugal filter units (Amicon). The final protein products and samples for different steps in the purification procedures were evaluated in SDS-Page gels.
(§2) SPR measurements were performed on Biacore T200 instrument (GE Healthcare) at 25 °C. Purified P. falciparum Hsp90 and PfGRP94 N-terminal domain, and full-length human Hsp90α were immobilized on a CM5 sensorchip using NHS/EDC coupling following the manufacturer protocol to a level of <10,000 RUs, a reference surfaces without immobilized proteins served as a control for nonspecific binding and refractive index changes. Seven different concentrations of the ligands between 0.4 nM and 1 mM, were injected in triplicate over the sensor chip at 30 μL/min in random order. The running buffer was 10 mM HEPES, pH 7.4, 150 mM NaCl, 0.005% P20, 1% DMSO and 2 mM MgCl2. Buffer alone injections were used as blanks. The sensor surface was regenerated between injections with a short injection of a buffer 10 mM HEPES, pH 7.4, 150 mM NaCl, 0.005% P20 and 3 mM EDTA. The Biacore responses recorded during the 30 s of the injection were used to estimate the association constant (k on) and the 300 s after the injection were used to estimate the dissociation constant (k off). All kinetic constants were estimated using double subtracted sensorgrams using BiaEvaluation Software (GE Healthcare), the kinetic constants were used to calculate the dissociation constant (K d).

P. falciparum Hsp90 = P. falciparum Hsp90 (Plasmodium falciparum, UniProt Q8IC05); test: biochemical; type: binding
Procedure: as §1, §2

[1] = system: P. falciparum chloroquine resistant W2; test: Growth inhibition assay (SYBR Green I), W2; settings: W2, 72 h
Procedure: (§5) A 50% suspension of non-infected O positive erythrocytes was added every 2 days to adjust haematocrit to 5%. Parasite cultures were maintained at 37 °C in 5% O2 and 5% CO2 atmosphere with daily changes of culture media.
(§6) A synchronized P. falciparum culture, with over 80% ring forms, was used in the growth inhibition assay. […] A 190 μL aliquot of parasite culture was dispensed per well to microplates that were pre-dispensed with the compounds at various dilutions. […] Dilutions of Hsp90 inhibitors and DHA were prepared in water with a final concentration of DMSO below 0.05% (v/v).
(§7) The microplates were incubated at 37 °C in a controlled atmosphere (5% O2, 5% CO2 Nitrogen balanced) for 72 h. After incubation, the plates were subject to a freeze–thaw cycle (−80 °C) and the parasite growth was quantified by the SYBR Green I method as previously described [33]. Briefly, 100 µL of homogenized parasite culture was transferred into 96-well black plates. […] The plates were incubated at room temperature in darkness for 1 h.
(§8) Growth inhibition experiments were conducted at least three times per compound (biological replicates, n ≥ 3). The IC50 differences for each inhibitor between the two P. falciparum strains were compared with a t test.

[2] = system: P. falciparum chloroquine sensitive 3D7; test: Growth inhibition assay (SYBR Green I), 3D7; settings: 3D7, 72 h
Procedure: as §5, §6, §7, §8

human Hsp90α = target: T1, human Hsp90α (Homo sapiens, UniProt P07900); test: Biacore SPR analysis, full-length human Hsp90α; type: binding; settings: for kon: read-out: ka
T1 construct: Full-length human recombinant HSP90α was purchased; purchased Cayman Chemicals, MI
Procedure: as §1
as §2, with “Seven different concentrations of the ligands between 0.4 nM and 1 mM, were injected in triplicate over the sensor chip at 30 μL/min in random order.” left out

P. falciparum 3D7 [3] = test: Parasite stage specific effect, 3D7; type: cell-based, Plasmodium falciparum; settings: 3D7, 24 h; 17-DMAG 1.2 µM, NVP-AUY922 0.72 µM
Procedure: (§3) Synchronized P. falciparum cultures were used to determine the susceptibility of different parasite stages to Hsp90 inhibitors. Three synchronized cultures per strain, with a majority of the parasites in the ring (0–26 h post red blood cell infection), trophozoite (26–38 h) or schizont (38–48 h) stages respectively (Fig. 3). […] The cultures were exposed to one concentration of the Hsp90 inhibitor for 24 h. […] For each three exposed the cultures and the control for both strains 3D7 and W2, the parasitaemia and the developmental stage of the parasites were recorded. Before and after drug exposure, Giemsa-stained blood smears were scored by microscopy examination counting 100 infected erythrocytes per culture, and the proportion of each developmental stage was calculated.

P. falciparum 3D7 [4] = test: Recrudescence assay, 3D7; type: cell-based, Plasmodium falciparum
Procedure: (§4) The assay is a modification of the previously reported bulk recrudescence assay. […] […] After drug exposure, the medium containing the drug was removed and the cultures were washed twice with compound-free media, and resuspended in RPMI to adjust haematocrit to 5%. The medium was changed every day and red blood cells were added every 2 days to adjust the haematocrit. The cultures were monitored daily until they reached 10% parasitaemia, which represented the end point of the experiment. Culture parasitaemia was determined by scoring >2000 erythrocytes in Giemsa-stained thin blood films as parasitized or not. The median number of days to reach this level of parasitaemia was reported for all the experiments. All experiments were conducted in triplicate; each replica was conducted on different days. The differences in the recovery times between control cultures to those exposed to Hsp90 inhibitors were analysed using the non-parametric statistic Kruskal–Wallis test. If the overall test was significant then Dunn’s multiple comparison tests were used to identify significant differences among pair comparisons. The same statistical analysis was applied when comparing P. falciparum cultures exposed to DHA alone versus DHA in combination with Hsp90 inhibitors. […] The statistical analyses were performed with the software Prism v6 (GraphPad Software, San Diego, CA).

P. falciparum W2 [5] = test: Recrudescence assay, W2; type: cell-based, Plasmodium falciparum
Procedure: as §4

[6] = system: Primary normal human lung fibroblasts (NHLFs); test: Drug cytotoxicity assay (MTT); settings: 24 h
Procedure: Primary normal human lung fibroblasts (NHLFs) were seeded on 24-well plates and cultured in FGM-2 media (LONZA, Basel, Switzerland) until they reached 80% confluency. […] Briefly, 50 µL of MTT dye was added into the media and the cells were returned to the incubator for 3 h. Then 500 µL of solubilization solution was added to dissolve the MTT formazan crystals. […] The drug cytotoxicity assay was performed in triplicate.

P. falciparum W2 [7] = test: Parasite stage specific effect, W2; type: cell-based, Plasmodium falciparum; settings: W2, 24 h; 17-DMAG 1.2 µM, NVP-AUY922 0.72 µM
Procedure: as §3

[8] = parameters: method as in PMID 18020435; settings: mice, 50 mg/kg; read-out: Cmax in plasma; cited from earlier work
[9] = Kd, SPR, 25 °C, calculated from kinetic constants
[10] = Plasmodium falciparum, synchronized ring culture
[11] = SPR, 25 °C, calculated from kinetic constants, read-out: Kd

P. falciparum Grp94, sequence (Q8I0V4 entry or part of it): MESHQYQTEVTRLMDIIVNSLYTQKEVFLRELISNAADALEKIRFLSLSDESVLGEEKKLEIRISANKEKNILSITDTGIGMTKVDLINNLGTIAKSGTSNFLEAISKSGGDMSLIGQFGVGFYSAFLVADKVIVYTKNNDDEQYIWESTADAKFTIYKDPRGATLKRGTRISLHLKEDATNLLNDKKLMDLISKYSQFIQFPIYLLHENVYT
P. falciparum Hsp90, sequence (Q8IC05 entry or part of it): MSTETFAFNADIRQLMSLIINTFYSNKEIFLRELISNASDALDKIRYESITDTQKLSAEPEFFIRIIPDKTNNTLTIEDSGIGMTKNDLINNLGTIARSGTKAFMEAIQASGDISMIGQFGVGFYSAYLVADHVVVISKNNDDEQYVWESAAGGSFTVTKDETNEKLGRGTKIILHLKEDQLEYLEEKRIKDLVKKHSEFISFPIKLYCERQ

| SMILES | Kd (P. falciparum Grp94) [µM] | ka (P. falciparum Grp94; SPR, 25 °C) [M⁻¹ s⁻¹] | kd (P. falciparum Grp94; SPR, 25 °C) [s⁻¹] | ka (P. falciparum Hsp90; SPR, 25 °C) | kd (P. falciparum Hsp90; SPR, 25 °C) [s⁻¹] | IC90 ([1]; Plasmodium falciparum) [µM] | IC50 [1, 10] [µM] | IC90 ([2]; Plasmodium falciparum) [µM] | IC50 [2, 10] [µM] | also measured |
| --- | --- | --- | --- | --- | --- | --- | --- | --- | --- | --- |
| CC(C)c1cc(C(=O)N2Cc3ccc(CN4CCN(C)CC4)cc3C2)c(O)cc1O [AT13387, (2,4-dihydroxy-5-isopropylphenyl)-[5-(4-methylpiperazin-1-ylmethyl)-1,3-dihydroisoindol-2-yl]methanone] | 2980 | 216 | 0.643 | 212 M⁻¹ s⁻¹ | 0.009 | 5.37 | 0.531 | 4.57 | 0.665 | Kd (P. falciparum Hsp90; [9]): 46.5 µM; kd (human Hsp90α; SPR, 25 °C): 0.348 s⁻¹; kon (human Hsp90α): 570 M⁻¹ s⁻¹ |
| CC(C)NCCCn1c(Sc2cc(Cl)cc(Cl)c2)nc2c(N)ncnc21 [PUWS13] | 5600 | 149 | 0.843 | 598,000 1/Ms | 0.041 | 9.06 | 3.88 |  | 7 | Kd (P. falciparum Hsp90; [9]): 0.069 µM; kd (human Hsp90α; SPR, 25 °C): 0.022 s⁻¹; kon (human Hsp90α): 811 M⁻¹ s⁻¹ |
| CC(C)c1cc(-c2n[nH]c(=O)n2-c2ccc3c(ccn3C)c2)c(O)cc1O [STA-9090] | 0.001 | 1.7e+06 | 0.003 | 1.27 M⁻¹ s⁻¹ | 1.5e-07 | > 10 | 1.29 | 4.11 | 1.25 | Kd (P. falciparum Hsp90; Kd): 0.121 µM |
| CCNC(=O)c1noc(-c2cc(C(C)C)c(O)cc2O)c1-c1ccc(CN2CCOCC2)cc1 [NVP-AUY922] | 0.009 |  |  |  |  | 0.46 | ~0.075 | 0.646 | ~0.075 | effect against all parasite stages (ring, trophozoite, schizont) (P. falciparum 3D7 [3]): effective against all parasite stages; recovery time in combination with DHA vs DHA alone (P. falciparum 3D7 [4]; 3D7, 48 h, two concentrations plus DHA 100 nM): increase in the time required to reach 10% parasitaemia; delay of culture recovery vs untreated control (cytocidal activity) (P. falciparum 3D7 [4]; 3D7, 48 h exposure, 17-AAG 1.5-6 µM, 17-DMAG 0.3-1.2 µM, NVP-AUY922 0.18-0.72 µM): (0.36 and 0.72 µM) significantly delayed the parasite recovery; also recorded: strong cytotoxic activities; ka (P. falciparum Grp94): 438,000 1/Ms; kd (P. falciparum Grp94): 0.004 s⁻¹; ka (P. falciparum Hsp90): 107,000 1/Ms; kd (P. falciparum Hsp90): 0.001 s⁻¹; Kd (P. falciparum Hsp90; Kd): 0.013 µM; Kd (P. falciparum Hsp90; Kd against the parasite chaperone): 0.0132 µM; recovery time in combination with DHA vs DHA alone (P. falciparum W2 [5]; W2, 48 h, two concentrations plus DHA 100 nM): only significant in the case of P. falciparum W2; delay of culture recovery vs untreated control (cytocidal activity) (P. falciparum W2 [5]; W2, 48 h exposure, 17-AAG 1.5-6 µM, 17-DMAG 0.3-1.2 µM, NVP-AUY922 0.18-0.72 µM): (0.36 and 0.72 µM) significantly delayed the parasite recovery; also recorded: strong cytotoxic activities; IC50 ([1]; synchronized ring culture): 0.0754 µM; IC50 ([2]; synchronized ring culture): 0.0755 µM; IC50 ([6]; Homo sapiens, Fibroblast, read-out: IC50 against human cells): > 10 µM; growth inhibition for the human cells ([6]; NHLF, 0.5 to 10 µM): ≤ 25%; effect against all parasite stages (ring, trophozoite, schizont) (P. falciparum W2 [7]): effective against all parasite stages; Cmax [8]: 35 µM |
| CC1(C)CC(=O)c2c(C(F)(F)F)nn(-c3ccc(C(N)=O)c(N[C@H]4CC[C@H](OC(=O)CN)CC4)c3)c2C1 [SNX-5422] |  |  |  |  |  | 6.65 | 2.01 | 4.32 | 2.14 |  |
| CCN(CC)CCCC(C)Nc1ccnc2cc(Cl)ccc12 (stereo not shown) [CQ, Chloroquine] |  |  |  |  |  | 0.39 |  | 0.0672 |  | IC50 ([1]; Plasmodium falciparum): 0.129 µM; IC50 ([2]; Plasmodium falciparum): 0.0379 µM |
| CC(C)NCCCn1c(Sc2cc3c(cc2I)OCO3)nc2c(N)ncnc21 [PUH71] |  |  |  |  |  | > 10 |  |  |  | ka (P. falciparum Hsp90): 356,000 1/Ms; kd (P. falciparum Hsp90): 0.005 s⁻¹; IC50 ([1]; Plasmodium falciparum): 4.42 µM; IC50 ([2]; Plasmodium falciparum): 3.92 µM; kd (human Hsp90α): 0.007 s⁻¹ |
| Nc1ncnc2c1ncn2[C@@H]1O[C@H](COP(=O)(O)OP(=O)(O)O)[C@@H](O)[C@H]1O [ADP] |  | 1360 | 0.003 | 107 M⁻¹ s⁻¹ | 0.002 |  |  |  |  | Kd (P. falciparum Grp94; [11]): 2.21 µM; Kd (P. falciparum Hsp90; [11]): 20.6 µM; ka (human Hsp90α; SPR, 25 °C): 109 M⁻¹ s⁻¹; kd (human Hsp90α; SPR, 25 °C): 0.006 s⁻¹; Kd (human Hsp90α; SPR, 25 °C, calculated from kinetic constants): 63.8 µM |
| C[C@H]1[C@@H](O)O[C@@H]2O[C@@]3(C)CC[C@H]4[C@H](C)CC[C@@H]1[C@@]24OO3 [DHA, dihydroartemisinin] |  |  |  |  |  | 0.0018 | 0.0005 | 0.0052 | 0.0012 | days to recover to 10% parasitaemia (median) (P. falciparum 3D7 [4]; 3D7, 100 nM for 48 h): 12 days; days to recover to 10% parasitaemia (median) (P. falciparum W2 [5]; W2, 100 nM for 48 h): 13 days |
| CC1(C)CC(=O)c2c(C(F)(F)F)nn(-c3ccc(C(N)=O)c(N[C@H]4CC[C@H](O)CC4)c3)c2C1 [SNX-2112] |  | 4720 | 0.0006 | 20,300 1/Ms | 0.003 | > 10 | 1.7 |  |  |  |
| COC1=C2C[C@@H](C)C[C@H](OC)[C@H](O)[C@@H](C)/C=C(\C)[C@H](OC(N)=O)[C@@H](OC)/C=C\C=C(/C)C(=O)NC(=CC1=O)C2=O [Geldanamycin, geldanamycin] |  |  |  |  |  | 2.63 |  | 1.7 |  | IC50 ([1]; Plasmodium falciparum): 0.2 µM; IC50 ([2]; Plasmodium falciparum): 0.215 µM |
